Experimental data: US8741889B2, “Method of treating non-small cell lung cancer and colon cancer with gamma-secretase inhibitor” (Hoffmann-La Roche Inc, priority 2008, dated 2014)

How the values were obtained:
[1] = test system: AsPC1 human pancreatic carcinoma xenografts; assay: Antitumor efficacy in AsPC1 pancreatic xenografts in nude mice; assay type: in vivo
Procedure: Female (athymic nu/nu) nude mice were obtained from Charles River Laboratories (Wilmington, Mass.), while female SCID-beige mice were purchased from Taconic (Germantown, N.Y.). Mice were used when they were approximately 8-12 weeks old (nudes) or 8-10 weeks old (SCID-beige), and weighed approximately 23-25 grams. The health of all animals was determined daily by gross observation of experimental animals and by the analyses of blood samples of sentinel animals that were housed on the shared shelf racks. All animals were allowed to acclimate and recover from any shipping related stress for a minimum of 72 hours prior to experimental use. Autoclaved water and irradiated food [5058-ms Pico chow (mouse) Purina, Richmond, Ind.] were provided ad libitum, and the animals were maintained on a 12 hour light and dark cycle. Cages, bedding and water bottles were autoclaved before use and were changed weekly. MiaPaca2, AsPC1 and BxPC3 human pancreatic carcinoma cells were purchased from ATCC (Manassas, Va.). BxPC3 and AsPC1 cells were grown in RPMI medium and MiaPaca2 cells were grown in Dulbecco's Modified Essential Medium (DMEM). All culture media were supplemented with 10% (v/v) FBS and 1% (v/v) […]. […] SCID-biege mice were implanted se with 5×10^6 BxPC3 cells in a 1:1 mixture of matrigel:PBS in a volume of 0.2 ml per mouse in the right hind flank on May 22, 2007. […] Formulated compound and vehicle were stored at 4° C. and prepared weekly. The suspension was mixed vigorously prior to administration. Gemcitabine (Gemzar®, Eli Lilly and Company, Indianapolis, Ind., USA) was reconstituted with sterile saline to yield a stock solution of 38 mg/ml for the entire 3-4 week study. […] Nude mice implanted with MiaPaca2 or AsPC1 xenografts were randomized on day 17 and day 9 post cell implant, respectively. SCID-beige mice bearing BxPC3 xenografts were randomized 8 days post implant. […] Treatment for the MiaPaca2 study began on Feb. […] For the MiaPaca2 and AsPC1 studies, qd Compound (1) suspension or q3d gemcitabine treatment ended on day 37 post tumor cell implant, whereas for the BxPC3 study, qd Compound (1) suspension or q3d gemcitabine treatment ended on day 35 post tumor cell implant. For intermittent dosing of Compound (1) suspension in the AsPC1 study using the 7+/7− schedule×2 cycles, treatment ended on day 15, was reinitiated on day 23, and finally ended day 29. For intermittent dosing using the 3+/4− schedule×4 cycles, treatment ended on day 11, was reinitiated on day 16, ended day 18, was reinitiated on day 23, ended day 25, was reinitiated day 30, and finally ended on day 32. In the first combination group, daily Compound (1) was given simultaneously with q3d gemcitabine for a total of four weeks. For the remaining combination groups, Compound (1) and gemcitabine were given sequentially rather than simultaneously. In group 8 gemcitabine was dosed q3d during the 1st and 3rd weeks, whereas Compound (1) was given daily during the 2nd and 4th weeks only. In group 9, the order of compound dosing was reversed, with Compound (1) suspension given daily during the 1st and 3rd weeks, whereas gemcitabine was given q3d during the 2nd and 4th weeks. In group 10, gemcitabine was dosed q3d during the 1st and 2nd weeks, whereas Compound (1) was given daily during the 3rd and 4th weeks. In group 11, the order of compound dosing was reversed, with Compound (1) given daily during the 1st and 2nd weeks, and gemcitabine dosed q3d for the 3rd and 4th weeks. […]

[2] = test system: H460a NSCLC xenografts; assay: Antitumor efficacy in H460a NSCLC xenografts in nude mice; assay type: in vivo
Procedure: Female nude mice (10/group), obtained from Charles River Laboratories (Wilmington, Mass.) were used when they were approximately 13-14 weeks old and weighed approximately 23-25 grams. The health of all animals was determined daily by gross observation of experimental animals and by the analyses of blood samples of sentinel animals that were housed on the shared shelf racks. All animals were allowed to acclimate and recover from any shipping related stress for a minimum of 72 hours prior to experimental use. Autoclaved water and irradiated food [5058-ms Pico chow (mouse) Purina, Richmond, Ind.] were provided ad libitum, and the animals were maintained on a 12-hour light and dark cycle. Cages, bedding and water bottles were autoclaved before use and were changed weekly. Lovo human colorectal, Calu-6 NSCLC, and HCT116 colorectal cells were purchased from ATCC (Manassas, Va.). […] NSCLC cells were a gift from Dr. Jack Roth, MD Anderson Medical Center, Houston, Tex. Lovo cells were cultured in F12K culture medium, Calu-6 and […] were grown in Dulbecco's Modified Essential Medium (DMEM), and HCT116 cells were grown in McCoy's 5A medium. All culture media were supplemented with 10% (v/v) FBS and 1% (v/v) […] L-glutamine. […] Mice implanted with Lovo and Calu-6 xenografts were randomized on day 19 post-implant, mice implanted with HCT116 xenografts were randomized on day 20, while mice implanted with […] xenografts were randomized on day 12 post implant. […] Treatment for the Lovo and Calu-6 tumor studies began on Oct. 11, 2006 (day 19 post tumor cell implant), for the HCT116 study began on Oct. 16, 2006 (day 20 post tumor cell implant), and for the […] study on Oct. 11, 2006 (12 days post tumor cell implant). […] For the Lovo and Calu-6 studies, 21 day dosing ended on day 40 post-tumor cell implant. For intermittent dosing, treatment ended on day 26, was reinitiated on day 40, and ended day 47. For the HCT116 study, 21 day dosing ended on day 42 post tumor cell implant. Intermittent dosing ended on day 27, was reinitiated on day 42, and ended day 49. For the […] study, 21 day dosing ended early on day 27 post tumor cell implant, whereas for intermittent dosing, treatment ended day 19, and was not reinitiated (due to lack of efficacy). Efficacy data was graphically represented as the mean tumor volume ±standard error of the mean (SEM). […] Statistical analysis was determined by the rank sum test and One Way Anova and a post-hoc Bonferroni t-test (SigmaStat, version 2.0, Jandel Scientific, San Francisco, Calif.). […]

## CC(C)(C(=O)NCC(F)(F)C(F)(F)F)C(=O)N[C@@H]1C(=O)Nc2ccccc2-c2ccccc21 [Compound (1), 2,2-Dimethyl-N—((S)-6-oxo-6,7-dihydro-5H-dibenzo[b,d]azepin-7-yl)-N′-(2,2,3,3,3-pentafluoro-propyl)-malonamide]
[1]; 3 mg/kg po qd × 28 days, day 37
  % TGI: 49%
[1]; 10 mg/kg po qd × 28 days, day 37
  % TGI: 58%
[1]; 10 mg/kg po, 3+/4− × 4 cycles
  % TGI: 32%
[1]; 10 mg/kg po, 7+/7− × 2 cycles
  % TGI: 41%
[2]; 3 mg/kg po qd, dosing ended early
  % TGI: 0%
[2]; 10 mg/kg po qd, dosing ended early
  % TGI: 0%
[2]; 30 mg/kg po qd × 7 days, not reinitiated
  % TGI: 0%
[2]; 60 mg/kg po qd × 7 days, not reinitiated
  % TGI: 0%
